In the AptaBench aptamer set (doi:10.1093/nar/gkaf219):

Assays:
Conditions in all cases: 10 mM Tris-HCl, pH 7.4
[1] = test system: DNA aptamer or structured DNA CTTACGACAATGGGGCAGTTCTAGTTGGGGTTTATATTGTCGTAAG
[2] = test system: DNA aptamer or structured DNA CTTACGACACATTTGGGTATTCTGGGTGAGCTGTGTCGTAAG
[3] = test system: DNA aptamer or structured DNA CTTACGACCTAAGGGTCTGGAGTGGTTGTTATACGCTGGTCGTAAG
[4] = test system: DNA aptamer or structured DNA CTTACGACGACCTATTGGGGGGTAGTTATAGTTGGGTGAGTCGTAAG
[5] = test system: DNA aptamer or structured DNA CTTACGACGTGTGCTGTTGGTTCTAGGGTAGGATGGCGTCGTAAG
[6] = test system: DNA aptamer or structured DNA CTTACGACGTTGGGCTTATTAGGGGCTGGAGTGGGTGAGTCGTAAG
[7] = test system: DNA aptamer or structured DNA CTTACGACTAGGTGGGGGTCGGCGCCGTAGGTGGGGTAGTCGTAAG
[8] = test system: DNA aptamer or structured DNA CTTACGACCACCATGGGAATCGGGTGGCTTGGAGGTGCGTCGTAAG
[9] = test system: DNA aptamer or structured DNA CTTACGACCAGGCTACGTGGGGGAGGGTGGGAAGACGGGTCGTAAG
[10] = test system: DNA aptamer or structured DNA CTTACGACCGGTGGGGAGGCCGGAGTTGGGAACGGGGGGTCGTAAG
[11] = test system: DNA aptamer or structured DNA GGGACGACAAAATGGCAGCATTGGTGACGGAGTTGCTTGTCGTCCC
[12] = test system: DNA aptamer or structured DNA GGGACGACAGGGATTCGGTCTTGGAACAAAGGGGCCTCGTCTGTCGTCCC
[13] = test system: DNA aptamer or structured DNA GGGACGACCGCGTAGGGGAACACGCTTGCAGGGCTGAGGTCGTCCC
[14] = test system: DNA aptamer or structured DNA GGGACGACGGGATGGTAAGTGGCAGGTCGTTGGAATTTCTACTGTATCGTCGTCCC
[15] = test system: DNA aptamer or structured DNA GGGACGACGGGATTCGGATCGTGGAACAGTGCCTCGTCGTCGTCCC
[16] = test system: DNA aptamer or structured DNA GGGACGACTAATGGGAGCATTGGTCCACGCAGTGTGCAGTCGTCCC
[17] = test system: DNA aptamer or structured DNA GGGACGACTAGCCGTGGCGTTGTCCGAACCAGTGAGTAGTCGTCCC
[18] = test system: DNA aptamer or structured DNA GGGACGACTAGCGGTGTTGGTCGGAGTGGTGGAATCTAGTCGTCCC
[19] = test system: DNA aptamer or structured DNA TTCAAATCTAGCGCAGGTAGGGGTGTAGGCGTGGGGGTAAGTCTAGATTTGAA
[20] = test system: DNA aptamer or structured DNA TTCAAATCTAGCGCAGGTAGGGGTGTAGGTGTGGGGGTAAGTCTAGATTTGAA
[21] = test system: DNA aptamer or structured DNA TTCAAATCTTGCGAATTGGACTCAGAATGTGGGTTTGCCAGTCTAGATTTGAA
[22] = test system: DNA aptamer or structured DNA CTTACGACAGGTTCTGAGGAATCAACGTCGGTGTAGTTGTCGTAAG
[23] = test system: DNA aptamer or structured DNA CTTACGACTAGGTGTGGGTCGGCGCTAGGGGCAGGGTAGTCGTAAG
[24] = test system: DNA aptamer or structured DNA GGGACGACCGTTGGCGAGTGTGTCCGGGGACTACAGGGGTCGTCCC
[25] = test system: DNA aptamer or structured DNA GGGACGACGCCGGCTTTTAGGGGGGGTGTGGGTGGCGAGTCGTCCC
[26] = test system: DNA aptamer or structured DNA GGGACGACGGGGGGCTTTAGGGTGTAGGAGTGGGGTGAGTCGTCCC
[27] = test system: DNA aptamer or structured DNA GGGACGACTAGCCCTAGCGTTGTTCGAGTCCATGAGTAGTCGTCCC
[28] = test system: DNA aptamer or structured DNA CTTACGACCGACTTTTGGGTGTTCTGGGTGGGATGTGGGTCGTAAG
[29] = test system: DNA aptamer or structured DNA GGGACGACAGGGATTCGGTCTTGGTACATAGGGGCCTCGTCTGTCGTCCC
[30] = test system: DNA aptamer or structured DNA GGGACGACGGCACGAGGTAATTCGTTGGTTGCACTGCGCTGGGAGGCAGTCGTCCC
[31] = test system: DNA aptamer or structured DNA GGGACGACGGCACGAGGTTAATCGTTGGTTGCACTGCGCTGGGAGGCAGTCGTCCC
[32] = test system: DNA aptamer or structured DNA GGGACGACGGCACGGGGTTATTCGTTGGTTGCACTGCGCTGGGAGGCAGTCGTCCC
[33] = test system: DNA aptamer or structured DNA GGGACGACGGGGATTCGCGGATTCATGGAAAAGGGCTCGTCTGTCGTCCC
Wherever binding call is given: call rule not given here.

Row | SMILES | binding call [1] | binding call [2] | binding call [3] | binding call [4] | binding call [5] | binding call [6] | binding call [7] | binding call [8] | binding call [9] | binding call [11] | binding call [12] | binding call [14] | binding call [15] | binding call [16] | binding call [18] | binding call [20] | binding call [21] | binding call [25] | binding call [26] | other results
1 | CC(C)Cc1ccc(C(C)C(=O)O)cc1 (stereo not given) | no binding | no binding | no binding | no binding | no binding | no binding | no binding | – | – | – | – | – | – | – | – | – | – | – | – | –
2 | CCN(CC)CC(=O)Nc1c(C)cccc1C | no binding | – | – | no binding | – | – | – | no binding | no binding | no binding | no binding | binds | no binding | no binding | no binding | no binding | no binding | – | – | binding call [10]: no binding; binding call [13]: no binding; binding call [17]: no binding; binding call [19]: no binding
3 | COC(=O)[C@@H]1C2CCC(C[C@@H]1OC(=O)c1ccccc1)N2C (stereo not given in full) | – | – | – | – | – | – | – | no binding | no binding | – | – | no binding | no binding | no binding | binds | no binding | no binding | no binding | no binding | Kd [1]: 0.345 µM; Kd [2]: 0.602 µM; Kd [22]: 0.022 µM; Kd [3]: 0.218 µM; Kd [4]: 0.102 µM; Kd [5]: 0.093 µM; Kd [6]: 0.617 µM; Kd [7]: 0.467 µM; Kd [23]: 0.315 µM; binding call [24]: no binding; binding call [27]: no binding
4 | CCC(=O)C(CC(C)N(C)C)(c1ccccc1)c1ccccc1 (stereo not given) | – | – | – | no binding | – | no binding | – | – | – | no binding | – | no binding | – | no binding | no binding | no binding | – | no binding | no binding | –
5 | NCCc1ccc(O)c(O)c1 | binds | binds | no binding | no binding | binds | no binding | binds | – | – | – | no binding | binds | – | – | – | – | – | – | – | binding call [22]: no binding; binding call [28]: no binding; binding call [23]: no binding; binding call [29]: no binding; binding call [30]: binds; binding call [31]: binds; binding call [32]: no binding; binding call [33]: no binding
